pEC50: −log10 of the molar value.
Molecular target: T1, recombinant human PKM2 (Homo sapiens, UniProt P14618)
T1 construct: His (N); purchased R&D Systems
Assay: Human PKM2 activation assay (Kinase-Glo Plus luminescent detection of generated ATP)
Type: biochemical
Conditions: for Emax: percentage activation normalised to DMSO vehicle (LOW) and 5 μM TEPP-46 (HIGH), read-out: hPKM2 Emax; for pEC50: recombinant human PKM2 activation, 4-parameter logistic fit, read-out: hPKM2 EC50
Method in brief: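 N-His-tagged recombinant hPKM2 ([…]) with PEP and ADP was incubated with compound for 60 min at 26 °C, shaking, in 50 mM imidazole, 50 mM KCl, 7 mM MgCl2, 0.01% Tween20, 0.05% BSA, pH 7.2. ATP produced was read by Kinase-Glo Plus luminescence after 15 min.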

T1 sequence (P14618 2-531 limits assumed): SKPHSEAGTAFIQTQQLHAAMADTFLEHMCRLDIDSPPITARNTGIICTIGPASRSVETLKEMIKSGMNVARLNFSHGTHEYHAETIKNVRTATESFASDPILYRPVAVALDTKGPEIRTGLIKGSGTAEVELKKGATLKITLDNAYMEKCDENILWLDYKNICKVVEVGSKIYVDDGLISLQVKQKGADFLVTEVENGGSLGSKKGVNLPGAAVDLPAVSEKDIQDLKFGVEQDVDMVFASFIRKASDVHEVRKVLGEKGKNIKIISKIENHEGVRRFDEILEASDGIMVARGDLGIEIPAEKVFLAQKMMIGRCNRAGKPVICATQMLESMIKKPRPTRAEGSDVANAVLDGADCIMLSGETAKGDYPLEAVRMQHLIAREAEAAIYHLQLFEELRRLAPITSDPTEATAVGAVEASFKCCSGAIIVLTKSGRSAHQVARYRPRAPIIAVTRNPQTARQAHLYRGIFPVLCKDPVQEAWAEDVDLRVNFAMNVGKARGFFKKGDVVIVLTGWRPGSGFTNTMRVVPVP

O=c1c2ccc(S(=O)(=O)c3ccccc3)cc2cnn1Cc1cc2n(n1)CCO2 [Example 27, 2-((2,3-dihydropyrazolo[5,1-b]oxazol-6-yl)methyl)-6-(phenylsulfonyl)phthalazin-1(2H)-one]
Emax: 122% | pEC50: 7.15

Cn1ccc(S(=O)(=O)c2ccc3c(=O)n(Cc4cc[nH]n4)ncc3c2)n1 [Example 306]
Emax: 104% | pEC50: 6.62

COc1ccc(Cn2ncc3cc(S(=O)(=O)c4ccccc4)ccc3c2=O)cc1 [Example 49, 2-(4-methoxybenzyl)-6-(phenylsulfonyl)phthalazin-1(2H)-one]
Emax: 98.2% | pEC50: 6.91

O=c1c2ccc(S(=O)(=O)c3ccccn3)cc2cnn1Cc1cc[nH]n1 [Example 211, 2-((1H-pyrazol-3-yl)methyl)-6-(pyridin-2-ylsulfonyl)phthalazin-1(2H)-one]
Emax: 80.7% | pEC50: 6.65

Cc1cc(S(=O)(=O)c2ccc3c(=O)n(Cc4ccc5c(n4)CCO5)ncc3c2)n[nH]1 [Example 359]
Emax: 112% | pEC50: 7.62

Cn1ccc(Cn2ncc3cc(S(=N)(=O)c4ccccc4)ccc3c2=O)n1 (stereo not shown) [Example 262, 2-((1-methyl-1H-pyrazol-3-yl)methyl)-6-(phenylsulfonimidoyl)phthalazin-1(2H)-one]
Emax: 110% | pEC50: 6.19

COc1ccc(Cn2ncc3cc(S(=O)(=O)c4ccccc4)ccc3c2=O)c(C(N)=O)n1 [Example 14, 6-methoxy-3-((1-oxo-6-(phenylsulfonyl)phthalazin-2(1H)-yl)methyl)picolinamide]
Emax: 95.5% | pEC50: 6.83

COc1ccc(Cn2ncc3cc(S(=O)(=O)c4cc[nH]n4)ccc3c2=O)nc1 [Example 325]
Emax: 111% | pEC50: 6.82

COc1ccc(Cn2ncc3cc(S(=O)(=O)c4ccc5c(c4)CC(C)O5)ccc3c2=O)cn1 (stereo not shown) [Example 167, 2-((6-methoxypyridin-3-yl)methyl)-6-((2-methyl-2,3-dihydrobenzofuran-5-yl)sulfonyl)phthalazin-1(2H)-one]
Emax: 95.5% | pEC50: 7.18

COc1ccc(Cn2ncc3cc(S(=O)(=O)c4cnc5c(c4)CCO5)ccc3c2=O)cn1 [Example 183, 6-((2,3-dihydrofuro[2,3-b]pyridin-5-yl)sulfonyl)-2-((6-methoxypyridin-3-yl)methyl)phthalazin-1(2H)-one]
Emax: 79.7% | pEC50: 7.33

Nc1cccc(Cn2ncc3cc(S(=O)(=O)c4cccnc4)ccc3c2=O)c1 [Example 121, 2-(3-aminobenzyl)-6-(pyridin-3-ylsulfonyl)phthalazin-1(2H)-one]
Emax: 116% | pEC50: 6.21

Cn1ccc(Cn2ncc3c(F)c(S(=O)(=O)c4ccccc4)ccc3c2=O)n1 [Example 243, 5-fluoro-2-((1-methyl-1H-pyrazol-3-yl)methyl)-6-(phenylsulfonyl)phthalazin-1(2H)-one]
Emax: 109% | pEC50: 7.07

O=c1c2ccc(S(=O)(=O)c3ccccc3)cc2cnn1Cc1cc(F)[nH]n1 [Example 111, 2-((5-fluoro-1H-pyrazol-3-yl)methyl)-6-(phenylsulfonyl)phthalazin-1(2H)-one]
Emax: 124% | pEC50: 6.61

Cc1cccc(Cn2ncc3cc(S(=O)(=O)c4csc([C@@H](C)O)n4)ccc3c2=O)n1 (single isomer, unassigned) [Example 296]
Emax: 92.2% | pEC50: 6.95

COC(C)c1nc(S(=O)(=O)c2ccc3c(=O)n(Cc4ccc5occc5n4)ncc3c2)cs1 (stereo not shown) [Example 352]
Emax: 117% | pEC50: 7.56

Nc1cccc(Cn2ncc3cc(S(=O)(=O)c4ccc5c(c4)CCO5)ccc3c2=O)c1 [Example 143, 2-(3-aminobenzyl)-6-((2,3-dihydrobenzofuran-5-yl)sulfonyl)phthalazin-1(2H)-one]
Emax: 104% | pEC50: 7.56

COc1ccc(Cn2ncc3cc(S(=O)(=O)c4ccn(CCO)n4)ccc3c2=O)cn1 [Example 280, 6-((1-(2-hydroxyethyl)-1H-pyrazol-3-yl)sulfonyl)-2-((6-methoxypyridin-3-yl)methyl)phthalazin-1(2H)-one]
Emax: 89.2% | pEC50: 6.92

O=c1c2ccc(S(=O)(=O)c3cnn(CC(F)(F)F)c3)cc2cnn1Cc1cc[nH]n1 [Example 361]
Emax: 93.2% | pEC50: 7.10

Cn1ccc(S(=O)(=O)c2ccc3c(=O)n(Cc4cccc(N)c4)ncc3c2)n1 [Example 145, 2-(3-aminobenzyl)-6-((1-methyl-1H-pyrazol-3-yl)sulfonyl)phthalazin-1(2H)-one]
Emax: 106% | pEC50: 6.81

O=c1c2ccc(S(=O)(=O)c3ccccc3)cc2cnn1Cc1ccn(C(F)F)n1 [Example 28, 2-((1-(difluoromethyl)-1H-pyrazol-3-yl)methyl)-6-(phenylsulfonyl)phthalazin-1(2H)-one]
Emax: 103% | pEC50: 6.79

Cc1[nH]nc(Cn2ncc3cc(S(=O)(=O)c4cc[nH]n4)ccc3c2=O)c1Cl [Example 332]
pEC50: 7.37

Cn1ccc(Cn2ncc3cc(S(=O)(=O)c4ccc5c(c4)OCCO5)ccc3c2=O)n1 [Example 215, 6-((2,3-dihydrobenzo[b][1,4]dioxin-6-yl)sulfonyl)-2-((1-methyl-1H-pyrazol-3-yl)methyl)phthalazin-1(2H)-one]
Emax: 93.4% | pEC50: 7.60

COC(C)c1nc(S(=O)(=O)c2ccc3c(=O)n(Cc4cc5n(n4)CCO5)ncc3c2)cs1 (stereo not shown) [Example 356]
Emax: 95.5% | pEC50: 7.28

O=c1c2ccc(S(=O)(=O)c3cc[nH]n3)cc2cnn1Cc1ccc2occc2n1 [Example 335]
Emax: 113% | pEC50: 7.85

O=c1c2ccc(S(=O)(=O)c3cnc4c(c3)OCCO4)cc2cnn1Cc1cc[nH]n1 [Example 234, 2-((1H-pyrazol-3-yl)methyl)-6-((2,3-dihydro-[1,4]dioxino[2,3-b]pyridin-7-yl)sulfonyl)phthalazin-1(2H)-one]
Emax: 91.9% | pEC50: 6.40

Cc1c(Cn2ncc3cc(S(=O)(=O)c4cn[nH]c4)ccc3c2=O)nn2c1OCC2 [Example 362]
Emax: 105% | pEC50: 7.38

O=c1c2ccc(S(=O)(=O)c3cc[nH]n3)cc2cnn1Cc1ccn(C(F)F)n1 [Example 328]
Emax: 91.5% | pEC50: 6.79

COc1ccc(Cn2ncc3cc(S(=O)(=O)c4ccc5c(c4)CCO5)ccc3c2=O)cn1 [Example 126, 6-((2,3-dihydrobenzofuran-5-yl)sulfonyl)-2-((6-methoxypyridin-3-yl)methyl)phthalazin-1(2H)-one]
Emax: 95.3% | pEC50: 7.72

Cn1ccc(S(=O)(=O)c2ccc3c(=O)n(Cc4ccc5occc5n4)ncc3c2)n1 [Example 336]
Emax: 106% | pEC50: 7.55

COc1ccc(Cn2ncc3cc(S(=O)(=O)c4cn[nH]c4)ccc3c2=O)nc1C [Example 291, 6-(1H-pyrazol-4-ylsulfonyl)-2-((5-methoxy-6-methylpyridin-2-yl)methyl)phthalazin-1(2H)-one]
Emax: 82.8% | pEC50: 6.01

COc1ccc(S(=O)(=O)c2ccc3c(=O)n(Cc4ccc(OC)nc4)ncc3c2)nc1 [Example 172, 6-(5-methoxypyridin-2-ylsulfonyl)-2-((6-methoxypyridin-3-yl)methyl)phthalazin-1(2H)-one]
Emax: 84.1% | pEC50: 7.21

Cc1c(Cl)c(Cn2ncc3cc(S(=O)(=O)c4cn[nH]c4)ccc3c2=O)nn1C [Example 338]
Emax: 96.4% | pEC50: 7.61

COc1ccc(S(=O)(=O)c2ccc3c(=O)n(Cc4cc[nH]n4)ncc3c2)nc1 [Example 257, 2-((1H-pyrazol-3-yl)methyl)-6-((5-methoxypyridin-2-yl)sulfonyl)phthalazin-1(2H)-one]
Emax: 99.3% | pEC50: 6.79

Cc1cccc(Cn2ncc3cc(S(=O)(=O)c4n[nH]cc4F)ccc3c2=O)n1 [Example 316]
Emax: 110% | pEC50: 6.70

Cc1coc2ccc(S(=O)(=O)c3ccc4c(=O)n(Cc5cc[nH]n5)ncc4c3)cc12 [Example 220, 2-((1H-pyrazol-3-yl)methyl)-6-((3-methylbenzofuran-5-yl)sulfonyl)phthalazin-1(2H)-one]
Emax: 84.7% | pEC50: 7.17

Cc1ccc(F)c(Cn2ncc3cc(S(=O)(=O)c4cc[nH]n4)ccc3c2=O)n1 [Example 301]
Emax: 119% | pEC50: 6.88

NC(=O)c1ccc(Cn2ncc3cc(S(=O)(=O)c4ccccc4)ccc3c2=O)o1 [Example 86, 5-((1-oxo-6-(phenylsulfonyl)phthalazin-2(1H)-yl)methyl)furan −2-carboxamide]
Emax: 92.2% | pEC50: 6.12

COC(C)c1nc(S(=O)(=O)c2ccc3c(=O)n(Cc4ccc5c(n4)CCO5)ncc3c2)cs1 (stereo not shown) [Example 350]
Emax: 94.9% | pEC50: 7.44

O=c1c2ccc(S(=O)(=O)c3cn[nH]c3)cc2cnn1Cc1ccc2c(n1)NCCO2 [Example 354]
Emax: 106% | pEC50: 7.63

COc1ccc(Cn2ncc3cc(S(=O)(=O)c4cnn(CCO)c4)ccc3c2=O)nc1 [Example 311]
Emax: 105% | pEC50: 6.62

O=c1c2ccc(S(=O)(=O)c3ccc4c(n3)OCCO4)cc2cnn1Cc1cc[nH]n1 [Example 229, 2-((1H-pyrazol-3-yl)methyl)-6-((2,3-dihydro-[1,4]dioxino[2,3-b]pyridin-6-yl)sulfonyl)phthalazin-1(2H)-one]
Emax: 94.7% | pEC50: 7.35

COCCn1cc(S(=O)(=O)c2ccc3c(=O)n(Cc4cc[nH]n4)ncc3c2)cn1 [Example 281, 2-((1H-pyrazol-3-yl)methyl)-6-((1-(2-methoxyethyl)-1H-pyrazol-4-yl)sulfonyl)phthalazin-1(2H)-one]
Emax: 113% | pEC50: 6.42

COc1ccc(F)c(Cn2ncc3cc(S(=O)(=O)c4ccn(C)n4)ccc3c2=O)c1 [Example 199, 2-(2-fluoro-5-methoxybenzyl)-6-((1-methyl-1H-pyrazol-3-yl)sulfonyl)phthalazin-1(2H)-one]
Emax: 91.4% | pEC50: 6.96

From US20260152487A1 (Sitryx Therapeutics Limited, priority 2021, published 2026)
